# Reference: EPA's ToxValDB 9.5 (doi:10.2903/j.efsa.2010.1526)
# Tests used:
# [1] = system: Tagia sp.; conditions: acute; duration: 14 days; mortality
# [2] = system: Bibionidae; conditions: chronic/long-term; duration: 17 days
# [3] = system: Oryctolagus sp.
# [4] = system: Hypoaspis aculeifer; conditions: chronic/long-term; duration: 14 days
# [5] = system: Canidae; conditions: chronic; duration: 1 years; oral; Dog Other; clinical chemistry
# [6] = system: Oncorhynchus mykiss; conditions: acute; duration: 96 hours; mortality
# [7] = system: Rattus norvegicus; conditions: oral
# [8] = system: Apis mellifera; conditions: acute; duration: 48 hours; oral; unspecified; mortality
# [9] = system: Bird
smiles,measurement,setting,value
C=CCOC(Cn1ccnc1)c1ccc(Cl)cc1Cl (stereo not drawn) [Imazalil],LC50,[1],541 mg/kg
same,NOEC,[2],0.181 mg/L
same,NOAEL,"[3]; developmental, development",5 mg/kg-day
same,NOEL,"[3]; reproduction developmental, reproduction",20 mg/kg-day
same,NOEC,[4],107 mg/kg
same,NOAEL,[5],2.5 mg/kg-day
same,LC50,[6],1.48 µg/mL
same,LD50,"[7]; acute, mortality",227 mg/kg-day
same,NOAEL,"[7]; chronic, duration: 6 months, clinical chemistry",5 mg/kg-day
same,LD50,[8],> 35.1 µg/piece
same,LD50,"[9]; acute, oral, unspecified, mortality",510 mg/kg-day
same,NOEC,[9]; chronic/long-term,24 mg/kg-day
same,LC50,"[9]; short-term, oral, feed, mortality",> 516 mg/kg-day
